Experimental findings from patent publication US20260022142A1, “MACROCYCLIC IMMUNOMODULATORS” (Bristol-Myers Squibb Company, priority 2022, published 2026) are described below.

Bridge positions count the residues as written; N and C are the ends. Square brackets hold non-standard residues; d marks the D form. Peptide text beside a SMILES is read from it. * marks the point of attachment. Phe(4-CH2CH2COOH) = N[C@@H](Cc1ccc(CCC(=O)O)cc1)C(=O)O; Trp(βS-Me) = C[C@@H](c1c[nH]c2ccccc12)[C@H](N)C(=O)O; Phe(4-COOH) = N[C@@H](Cc1ccc(C(=O)O)cc1)C(=O)O; Bip = N[C@@H](Cc1ccc(-c2ccccc2)cc1)C(=O)O; Phe(3-Me) = Cc1cccc(C[C@H](N)C(=O)O)c1; Val(3-F) = CC(C)(F)[C@H](N)C(=O)O; Cha = N[C@@H](CC1CCCCC1)C(=O)O; Cit = NC(=O)NCCC[C@H](N)C(=O)O; Carboxymethyl = O=C(O)C*; Orn = NCCC[C@H](N)C(=O)O; Aun = NCCCCCCCCCCC(=O)O; Dab = NCC[C@H](N)C(=O)O; Ac3c = NC1(C(=O)O)CC1; Piv = CC(C)(C)C(=O)*

The target in this experiment is T1, PD-1/PD-L1 interaction (PE-labeled human PD-L1-Ig binding to Jurkat cell line over-expressing human PD-1) (Homo sapiens, UniProt Q15116).
T1 construct: expressed in transfected cells; host or cells: Jurkat
T1 sequence (Q15116 25-288): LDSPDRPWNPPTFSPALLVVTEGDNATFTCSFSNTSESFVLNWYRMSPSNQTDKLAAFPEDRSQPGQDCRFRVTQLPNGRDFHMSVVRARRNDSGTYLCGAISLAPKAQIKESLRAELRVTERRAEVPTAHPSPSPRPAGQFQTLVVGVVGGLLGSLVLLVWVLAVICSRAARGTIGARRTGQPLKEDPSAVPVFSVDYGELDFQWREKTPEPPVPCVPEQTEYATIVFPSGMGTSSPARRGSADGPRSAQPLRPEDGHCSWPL
Briefly: Jurkat-PD-1 Cell Binding High-Content Screening Assay (CBA). Format: cell-based. As to conditions: Jurkat cell line over-expressing human PD-1; PE-labeled PD-L1-Ig 20 nM final; read-out: Jurkat hPD1-PDL1 IC50. In short, it runs like this: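 Read-out is high-content imaging of cell-bound phycoerythrin-tagged PD-L1-Ig on fixed, Hoechst-counterstained Jurkat cells that over-express human PD-1. Compound exposure lasts 2 h at 37° C before the labeled ligand (20 nM final) is added for a further hour.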
The term IC50 denotes the concentration that gives 50% inhibition. As for `Cc1cccc(C[C@@H]2NC(=O)[C@H](CC(=O)O)NC(=O)[C@H](Cc3ccc(OCC(=O)O)cc3)NC(=O)[C@H](CCCNC(=N)N)NC(=O)CSC[C@@H](C(=O)N[C@@H](CCN)C(=O)NCCCCCCCCCCC(=O)O)NC(=O)[C@H]([C@@H](C)O)NC(=O)[C@H](C(C)C)NC(=O)[C@H](CC3CCCCC3)NC(=O)[C@H](CCN)NC(=O)[C@@H](CC(C)C)NC(=O)[C@H](CCCN)NC(=O)[C@H](CCCNC(N)=O)NC(=O)[C@H](Cc3ccc(-c4ccccc4)cc3)NC(=O)[C@H](C(C)(C)F)NC2=O)c1` [Compound 2124] ({CH2CO}-RY(Carboxymethyl)D[Phe(3-Me)][Val(3-F)][Bip][Cit][Orn][dL][Dab][Cha]VTC[Dab][Aun]-OH; thioether N-14), the IC50 came out at 17.3 nM.
For `Cc1cccc(C[C@@H]2NC(=O)[C@H](CC(=O)O)NC(=O)[C@H](Cc3ccc(OCC(=O)O)cc3)NC(=O)[C@H](CCCNC(=N)N)NC(=O)CSC[C@@H](C(=O)N[C@@H](CCN)C(=O)NCCCCCCCCCCC(=O)O)NC(=O)[C@H]([C@@H](C)O)NC(=O)[C@H](C(C)C)NC(=O)[C@H](CC3CCCCC3)NC(=O)[C@H](CCN)NC(=O)[C@@H](CC(C)C)NC(=O)[C@H](CCCN)NC(=O)[C@H](Cc3ccc(O)cc3)NC(=O)[C@H](Cc3ccc(-c4ccccc4)cc3)NC(=O)[C@H](C(C)(C)F)NC2=O)c1` [Compound 2125] ({CH2CO}-RY(Carboxymethyl)D[Phe(3-Me)][Val(3-F)][Bip]Y[Orn][dL][Dab][Cha]VTC[Dab][Aun]-OH; thioether N-14), the half-maximal inhibitory concentration (IC50) came to 16.4 nM.
Then `Cc1cccc(C[C@@H]2NC(=O)[C@H](CC(=O)O)NC(=O)[C@H](Cc3ccc(OCC(=O)O)cc3)NC(=O)[C@H](CCCNC(=N)N)NC(=O)CSC[C@@H](C(=O)N[C@@H](CCN)C(=O)NCCCCCCCCCCC(=O)O)NC(=O)[C@H]([C@@H](C)O)NC(=O)[C@H](C(C)(C)F)NC(=O)[C@H](CC3CCCCC3)NC(=O)[C@H](CCN)NC(=O)[C@@H](CC(C)C)NC(=O)[C@H](CCCN)NC(=O)[C@H](Cc3ccc(O)cc3)NC(=O)[C@H](Cc3ccc(-c4ccccc4)cc3)NC(=O)[C@H](Cc3ccc(O)cc3)NC2=O)c1` [Compound 2126] ({CH2CO}-RY(Carboxymethyl)D[Phe(3-Me)]Y[Bip]Y[Orn][dL][Dab][Cha][Val(3-F)]TC[Dab][Aun]-OH; thioether N-14), with 35.7 nM; and `Cc1cccc(C[C@@H]2NC(=O)[C@H](CC(=O)O)NC(=O)[C@H](Cc3ccc(OCC(=O)O)cc3)NC(=O)[C@H](CCNC(=O)C(C)(C)C)NC(=O)CSC[C@@H](C(=O)N[C@@H](CCN)C(=O)NCCCCCCCCCCC(=O)O)NC(=O)[C@H]([C@@H](C)O)NC(=O)[C@H](C(C)C)NC(=O)[C@H](CC3CCCCC3)NC(=O)[C@H](CCN)NC(=O)[C@@H](CC(C)C)NC(=O)[C@H](CCCN)NC(=O)[C@H](Cc3ccc(OCC(=O)O)cc3)NC(=O)[C@H](Cc3ccc(-c4ccccc4)cc3)NC(=O)[C@H](Cc3ccc(C(=O)O)cc3)NC2=O)c1` [Compound 2127] ({CH2CO}-[Dab](Piv)Y(Carboxymethyl)D[Phe(3-Me)][Phe(4-COOH)][Bip]Y(Carboxymethyl)[Orn][dL][Dab][Cha]VTC[Dab][Aun]-OH; thioether N-14), with 28.4 nM; and `Cc1cccc(C[C@@H]2NC(=O)[C@H](CC(=O)O)NC(=O)[C@H](Cc3ccc(OCC(=O)O)cc3)NC(=O)[C@H](CCNC(=O)C(C)(C)C)NC(=O)CSC[C@@H](C(=O)N[C@@H](CCN)C(=O)NCCCCCCCCCCC(=O)O)NC(=O)[C@H](CCC(N)=O)NC(=O)[C@H](C(C)C)NC(=O)[C@H](CC3CCCCC3)NC(=O)[C@H](CCN)NC(=O)[C@@H](CC(C)C)NC(=O)[C@H](CCCN)NC(=O)[C@H](Cc3ccc(OCC(=O)O)cc3)NC(=O)[C@H](Cc3ccc(-c4ccccc4)cc3)NC(=O)[C@H](Cc3ccc(C(=O)O)cc3)NC2=O)c1` [Compound 2128] ({CH2CO}-[Dab](Piv)Y(Carboxymethyl)D[Phe(3-Me)][Phe(4-COOH)][Bip]Y(Carboxymethyl)[Orn][dL][Dab][Cha]VQC[Dab][Aun]-OH; thioether N-14), with 10.6 nM.
The figure for `Cc1cccc(C[C@@H]2NC(=O)[C@H](CC(=O)O)NC(=O)[C@H](Cc3ccc(OCC(=O)O)cc3)NC(=O)[C@H](CCCNC(=N)N)NC(=O)CSC[C@@H](C(=O)N[C@@H](CCN)C(=O)NCCCCCCCCCCC(=O)O)NC(=O)[C@H](CCC(N)=O)NC(=O)[C@H](C(C)C)NC(=O)[C@H](CC3CCCCC3)NC(=O)[C@H](CCN)NC(=O)[C@@H](CC(C)C)NC(=O)[C@H](CCCN)NC(=O)[C@H](Cc3ccc(OCC(=O)O)cc3)NC(=O)[C@H](Cc3ccc(-c4ccccc4)cc3)NC(=O)[C@H](Cc3ccc(CCC(=O)O)cc3)NC2=O)c1` [Compound 2129] ({CH2CO}-RY(Carboxymethyl)D[Phe(3-Me)][Phe(4-CH2CH2COOH)][Bip]Y(Carboxymethyl)[Orn][dL][Dab][Cha]VQC[Dab][Aun]-OH; thioether N-14) is 6 nM.
The figure for `Cc1cccc(C[C@@H]2NC(=O)[C@H](CC(=O)O)NC(=O)[C@H](Cc3ccc(OCC(=O)O)cc3)NC(=O)[C@H](CCCNC(=N)N)NC(=O)CSC[C@@H](C(=O)N[C@@H](CCN)C(=O)NCCCCCCCCCCC(=O)O)NC(=O)[C@H]([C@@H](C)O)NC(=O)[C@H](C(C)C)NC(=O)[C@H](CC3CCCCC3)NC(=O)[C@H](CCN)NC(=O)[C@@H](CC(C)C)NC(=O)[C@H](CCCN)NC(=O)[C@H](Cc3ccc(O)cc3)NC(=O)[C@H](Cc3ccc(-c4ccccc4)cc3)NC(=O)[C@H](Cc3ccc(OCC(=O)O)cc3)NC2=O)c1` [Compound 2130] ({CH2CO}-RY(Carboxymethyl)D[Phe(3-Me)]Y(Carboxymethyl)[Bip]Y[Orn][dL][Dab][Cha]VTC[Dab][Aun]-OH; thioether N-14) is 15.7 nM.
For `Cc1cccc(C[C@@H]2NC(=O)[C@H](CC(=O)O)NC(=O)[C@H](Cc3ccc(OCC(=O)O)cc3)NC(=O)[C@H](CCCNC(=N)N)NC(=O)CSC[C@@H](C(=O)N[C@@H](CCN)C(=O)NCCCCCCCCCCC(=O)O)NC(=O)[C@H](CCC(N)=O)NC(=O)[C@H](C(C)C)NC(=O)[C@H](CC3CCCCC3)NC(=O)[C@H](CCN)NC(=O)[C@@H](CC(C)C)NC(=O)[C@H](CCCN)NC(=O)[C@H](Cc3ccc(O)cc3)NC(=O)[C@H](Cc3ccc(-c4ccccc4)cc3)NC(=O)[C@H](Cc3ccc(CCC(=O)O)cc3)NC2=O)c1` [Compound 2131] ({CH2CO}-RY(Carboxymethyl)D[Phe(3-Me)][Phe(4-CH2CH2COOH)][Bip]Y[Orn][dL][Dab][Cha]VQC[Dab][Aun]-OH; thioether N-14), the IC50 is 5.8 nM.
Then `Cc1cccc(C[C@@H]2NC(=O)[C@H](CC(=O)O)NC(=O)[C@H](Cc3ccc(OCC(=O)O)cc3)NC(=O)[C@H](CCCNC(=N)N)NC(=O)CSC[C@@H](C(=O)NC3(C(=O)NCCCCCCCCCCC(=O)O)CC3)NC(=O)[C@H]([C@@H](C)O)NC(=O)[C@H](C(C)C)NC(=O)[C@H](CC3CCCCC3)NC(=O)[C@H](CCN)NC(=O)[C@@H](CC(C)C)NC(=O)[C@H](CCCN)NC(=O)[C@H](Cc3ccc(OCC(=O)O)cc3)NC(=O)[C@H](Cc3ccc(-c4ccccc4)cc3)NC(=O)[C@H](Cc3ccc(CCC(=O)O)cc3)NC2=O)c1` [Compound 2132] ({CH2CO}-RY(Carboxymethyl)D[Phe(3-Me)][Phe(4-CH2CH2COOH)][Bip]Y(Carboxymethyl)[Orn][dL][Dab][Cha]VTC[Ac3c][Aun]-OH; thioether N-14), with 11.5 nM; and `CC(C)C[C@H]1NC(=O)[C@H](CCCN)NC(=O)[C@H](Cc2ccc(O)cc2)NC(=O)[C@H](Cc2ccc(-c3ccccc3)cc2)NC(=O)[C@H](C(C)C)NC(=O)[C@H]([C@@H](C)c2c[nH]c3ccccc23)NC(=O)[C@H](CC(=O)O)NC(=O)[C@H](Cc2ccc(OCC(=O)O)cc2)NC(=O)[C@H](CCCNC(=N)N)NC(=O)CSC[C@@H](C(=O)NC2(C(=O)NCCCCCCCCCCC(=O)O)CC2)NC(=O)[C@H]([C@@H](C)O)NC(=O)[C@H](C(C)C)NC(=O)[C@H](CC2CCCCC2)NC(=O)[C@H](CCN)NC1=O` [Compound 2133] ({CH2CO}-RY(Carboxymethyl)D[Trp(βS-Me)]V[Bip]Y[Orn][dL][Dab][Cha]VTC[Ac3c][Aun]-OH; thioether N-14), with 58.8 nM.
The figure for `CC(C)C[C@H]1NC(=O)[C@H](CCCN)NC(=O)[C@H](CCCNC(N)=O)NC(=O)[C@H](Cc2ccc(-c3ccccc3)cc2)NC(=O)[C@H](C(C)C)NC(=O)[C@H]([C@@H](C)c2c[nH]c3ccccc23)NC(=O)[C@H](CC(=O)O)NC(=O)[C@H](Cc2ccc(OCC(=O)O)cc2)NC(=O)[C@H](CCCNC(=N)N)NC(=O)CSC[C@@H](C(=O)NC2(C(=O)NCCCCCCCCCCC(=O)O)CC2)NC(=O)[C@H]([C@@H](C)O)NC(=O)[C@H](C(C)C)NC(=O)[C@H](CC2CCCCC2)NC(=O)[C@H](CCN)NC1=O` [Compound 2134] ({CH2CO}-RY(Carboxymethyl)D[Trp(βS-Me)]V[Bip][Cit][Orn][dL][Dab][Cha]VTC[Ac3c][Aun]-OH; thioether N-14) is 38.5 nM; for `CC(C)C[C@H]1NC(=O)[C@H](CCCN)NC(=O)[C@H](Cc2ccc(OCC(=O)O)cc2)NC(=O)[C@H](Cc2ccc(-c3ccccc3)cc2)NC(=O)[C@H](Cc2ccc(OCC(=O)O)cc2)NC(=O)[C@H]([C@@H](C)c2c[nH]c3ccccc23)NC(=O)[C@H](CC(=O)O)NC(=O)[C@H](Cc2ccc(OCC(=O)O)cc2)NC(=O)[C@H](CCCNC(=N)N)NC(=O)CSC[C@@H](C(=O)NC2(C(=O)NCCCCCCCCCCC(=O)O)CC2)NC(=O)[C@H]([C@@H](C)O)NC(=O)[C@H](C(C)C)NC(=O)[C@H](CC2CCCCC2)NC(=O)[C@H](CCN)NC1=O` [Compound 2135] ({CH2CO}-RY(Carboxymethyl)D[Trp(βS-Me)]Y(Carboxymethyl)[Bip]Y(Carboxymethyl)[Orn][dL][Dab][Cha]VTC[Ac3c][Aun]-OH; thioether N-14) it is 68.8 nM.
